US20260138978A1, “POSITIVE ALLOSTERIC MODULATORS OF THE MUSCARINIC ACETYLCHOLINE RECEPTOR M1” (Vanderbilt University, priority 2022, published 2026)

Experiments:
human mAChRM1 [1] = target: T1, human mAChRM1 (Homo sapiens, UniProt P11229); test: mAChR M1 cell-based functional assay (calcium mobilization), positive allosteric modulator activity: increase in the EC20 acetylcholine response; details: for Emax: PAM mode; for EC50: increase in the EC20 acetylcholine response, read-out: PAM Activity Human M1 EC50
T1 construct: host or cells: CHO-K1
T1 sequence (P11229 1-460): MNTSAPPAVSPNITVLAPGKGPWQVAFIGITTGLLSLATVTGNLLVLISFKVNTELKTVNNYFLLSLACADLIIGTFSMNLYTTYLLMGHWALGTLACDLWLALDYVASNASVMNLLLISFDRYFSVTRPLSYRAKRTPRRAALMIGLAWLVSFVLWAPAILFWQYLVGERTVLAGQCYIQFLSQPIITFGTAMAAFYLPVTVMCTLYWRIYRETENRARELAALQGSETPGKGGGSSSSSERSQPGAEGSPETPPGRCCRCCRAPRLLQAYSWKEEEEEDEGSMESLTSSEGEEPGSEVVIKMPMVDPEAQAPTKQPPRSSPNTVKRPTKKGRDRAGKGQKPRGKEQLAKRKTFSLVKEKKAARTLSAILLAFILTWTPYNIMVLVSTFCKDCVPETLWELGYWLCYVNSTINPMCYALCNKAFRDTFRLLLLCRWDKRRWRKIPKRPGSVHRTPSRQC
In short: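 Potentiation is scored as the rise in an EC20 acetylcholine-evoked calcium signal across 11-point (1:3) compound series, fitted with a four-parameter logistic equation to give EC50 and Emax. Read-out is Fluo-4 fluorescence ratio in hM1-transfected CHO-K1 cells, measured kinetically on FDSS.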

human mAChRM1 [2] = target: T1, human mAChRM1; test: mAChR M1 cell-based functional assay (calcium mobilization), agonist activity upon compound addition, Emax relative to acetylcholine maximum; details: for Agonist Activity Human M1 EC50 / EC50: calcium mobilization upon compound addition; for Emax: relative to the maximum for acetylcholine
In short: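 Emax is given as a percentage of the maximal acetylcholine response, from four-parameter curves of compound-evoked calcium mobilization. Human M1-transfected CHO-K1 cells carried Fluo-4 dye, and compound (11 concentrations, 1:3 steps) was applied at 4 s of a 300 s kinetic fluorescence recording.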

SMILES	Emax (human mAChRM1 [1]) [%]	EC50 (human mAChRM1 [1]) [nM]	Agonist Activity Human M1 EC50 (human mAChRM1 [2])	EC50 (human mAChRM1 [2]) [nM]	Emax (human mAChRM1 [2]) [%]
CN(C)c1cc(-c2ccc(C(C)(C)O)c3nn(C)cc23)cc(F)c1CN1Cc2cccnc2C1=O [Compound 125, 6-(2-(dimethylamino)-6-fluoro-4-(7-(2-hydroxypropan-2-yl)-2-methyl-2H-indazol-4-yl)benzyl)-5,6-dihydro-7H-pyrrolo[3,4-b]pyridin-7-one]	77	≥ 10000	inactive	–	–
Cn1cc(-c2ccc(CN3Cc4ncccc4C3=O)c(F)c2)c(C(C)(C)O)n1 [Compound 29, 6-(2-fluoro-4-(3-(2-hydroxypropan-2-yl)-1-methyl-1H-pyrazol-4-yl)benzyl)-6,7-dihydro-5H-pyrrolo[3,4-b]pyridin-5-one]	56	≥ 10000	inactive	–	–
CC(C)(O)c1ccc(-c2ccc(CN3Cc4ncccc4C3=O)c(F)c2)c2ccccc12 [Compound 73, 6-(2-fluoro-4-(4-(2-hydroxypropan-2-yl)naphthalen-1-yl)benzyl)-6,7-dihydro-5H-pyrrolo[3,4-b]pyridin-5-one]	58	≥ 10000	inactive	–	–
Cn1cc2c(-c3cc(F)c(CN4Cc5ncccc5C4=O)c(F)c3)cc(C(C)(C)O)cc2n1 [Compound 24, 6-(2,6-Difluoro-4-(6-(2-hydroxypropan-2-yl)-2-methyl-2H-indazol-4-yl)benzyl)-6,7-dihydro-5H-pyrrolo[3,4-b]pyridin-5-one]	81	1920	inactive	–	–
CC(C)(O)c1ccc(-c2cc(F)c(CN3Cc4ncccc4C3=O)c(F)c2)cn1 [Compound 6, 6-(2,6-difluoro-4-(6-(2-hydroxypropan-2-yl)pyridin-3-yl)benzyl)-6,7-dihydro-5H-pyrrolo[3,4-b]pyridin-5-one]	80	≥ 10000	inactive	–	–

The next molecules have a lower EC50 (human mAChRM1 [1]) than those just listed; values first:

Emax (human mAChRM1 [1]) [%]	EC50 (human mAChRM1 [1]) [nM]	Agonist Activity Human M1 EC50 (human mAChRM1 [2])	EC50 (human mAChRM1 [2]) [nM]	Emax (human mAChRM1 [2]) [%]	SMILES
76	1330	inactive	–	–	Cc1cc(-c2ccc(C(C)(C)O)cc2)cc(F)c1CN1Cc2ncccc2C1=O [Compound 9, 6-((3-fluoro-4′-(2-hydroxypropan-2-yl)-5-methyl-[1,1′-biphenyl]-4-yl)methyl)-6,7-dihydro-5H-pyrrolo[3,4-b]pyridin-5-one]
76	856	–	≥ 10000	13	Cn1cc2c(-c3cc(F)c(CN4Cc5ncccc5C4=O)c(F)c3)ccc(C3(O)CN(C(=O)OC(C)(C)C)C3)c2n1 [Compound 113, tert-butyl 3-(4-(3,5-difluoro-4-((5-oxo-5,7-dihydro-6H-pyrrolo[3,4-b]pyridin-6-yl)methyl)phenyl)-2-methyl-2H-indazol-7-yl)-3-hydroxyazetidine-1-carboxylate]
85	359	inactive	–	–	CC[C@@](C)(O)c1ccc(-c2cc(F)c(CN3Cc4ncccc4C3=O)c(F)c2)c2cn(C)nc12 [Compound 102, (R)-6-(2,6-difluoro-4-(7-(2-hydroxybutan-2-yl)-2-methyl-2H-indazol-4-yl)benzyl)-6,7-dihydro-5H-pyrrolo[3,4-b]pyridin-5-one]
87	80	–	3780	46	Cn1cc2c(-c3cc(F)c(CN4Cc5ncncc5C4=O)c(F)c3)ccc(C(C)(C)O)c2n1 [Compound 139, 6-(2,6-difluoro-4-(7-(2-hydroxypropan-2-yl)-2-methyl-2H-indazol-4-yl)benzyl)-6,7-dihydro-5H-pyrrolo[3,4-d]pyrimidin-5-one]
78	59	–	2740	22	Cn1cc2c(-c3cc(F)c(CN4Cc5ncccc5C4=O)c(F)c3)ccc(C(C)(C)O)c2n1 [Compound 1, 6-(2,6-difluoro-4-(7-(2-hydroxypropan-2-yl)-2-methyl-2H-indazol-4-yl)benzyl)-6,7-dihydro-5H-pyrrolo[3,4-b]pyridin-5-one]
